ChEMBL document CHEMBL5247656, “Discovery of a Potent, Cooperative, and Selective SOS1 PROTAC ZZ151 with In Vivo Antitumor Efficacy in KRAS-Mutant Cancers” (J Med Chem, 2023)
Active and inactive are the calls of the source. The rule behind the calls is not given here.

Tests used:
[1] = target: T1, von Hippel-Lindau disease tumor suppressor/Son of sevenless homolog 1 (Homo sapiens) (UniProt Q07889+P40337); assay: PROTAC activity at VHL/SOS1 in human NCI-H358 cells assessed as induction of SOS1 protein degradation at 0.1 uM incubated for 24 hrs by Immunoblot analysis relative to control; format: cell-based
T1 sequence (P40337 whole entry, looked up): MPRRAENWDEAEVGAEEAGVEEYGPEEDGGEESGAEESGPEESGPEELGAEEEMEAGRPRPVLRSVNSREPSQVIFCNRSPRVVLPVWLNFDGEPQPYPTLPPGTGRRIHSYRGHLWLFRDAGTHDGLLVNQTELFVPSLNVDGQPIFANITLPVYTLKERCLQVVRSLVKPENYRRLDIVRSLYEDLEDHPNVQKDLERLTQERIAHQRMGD
T1 sequence (Q07889 whole entry, looked up): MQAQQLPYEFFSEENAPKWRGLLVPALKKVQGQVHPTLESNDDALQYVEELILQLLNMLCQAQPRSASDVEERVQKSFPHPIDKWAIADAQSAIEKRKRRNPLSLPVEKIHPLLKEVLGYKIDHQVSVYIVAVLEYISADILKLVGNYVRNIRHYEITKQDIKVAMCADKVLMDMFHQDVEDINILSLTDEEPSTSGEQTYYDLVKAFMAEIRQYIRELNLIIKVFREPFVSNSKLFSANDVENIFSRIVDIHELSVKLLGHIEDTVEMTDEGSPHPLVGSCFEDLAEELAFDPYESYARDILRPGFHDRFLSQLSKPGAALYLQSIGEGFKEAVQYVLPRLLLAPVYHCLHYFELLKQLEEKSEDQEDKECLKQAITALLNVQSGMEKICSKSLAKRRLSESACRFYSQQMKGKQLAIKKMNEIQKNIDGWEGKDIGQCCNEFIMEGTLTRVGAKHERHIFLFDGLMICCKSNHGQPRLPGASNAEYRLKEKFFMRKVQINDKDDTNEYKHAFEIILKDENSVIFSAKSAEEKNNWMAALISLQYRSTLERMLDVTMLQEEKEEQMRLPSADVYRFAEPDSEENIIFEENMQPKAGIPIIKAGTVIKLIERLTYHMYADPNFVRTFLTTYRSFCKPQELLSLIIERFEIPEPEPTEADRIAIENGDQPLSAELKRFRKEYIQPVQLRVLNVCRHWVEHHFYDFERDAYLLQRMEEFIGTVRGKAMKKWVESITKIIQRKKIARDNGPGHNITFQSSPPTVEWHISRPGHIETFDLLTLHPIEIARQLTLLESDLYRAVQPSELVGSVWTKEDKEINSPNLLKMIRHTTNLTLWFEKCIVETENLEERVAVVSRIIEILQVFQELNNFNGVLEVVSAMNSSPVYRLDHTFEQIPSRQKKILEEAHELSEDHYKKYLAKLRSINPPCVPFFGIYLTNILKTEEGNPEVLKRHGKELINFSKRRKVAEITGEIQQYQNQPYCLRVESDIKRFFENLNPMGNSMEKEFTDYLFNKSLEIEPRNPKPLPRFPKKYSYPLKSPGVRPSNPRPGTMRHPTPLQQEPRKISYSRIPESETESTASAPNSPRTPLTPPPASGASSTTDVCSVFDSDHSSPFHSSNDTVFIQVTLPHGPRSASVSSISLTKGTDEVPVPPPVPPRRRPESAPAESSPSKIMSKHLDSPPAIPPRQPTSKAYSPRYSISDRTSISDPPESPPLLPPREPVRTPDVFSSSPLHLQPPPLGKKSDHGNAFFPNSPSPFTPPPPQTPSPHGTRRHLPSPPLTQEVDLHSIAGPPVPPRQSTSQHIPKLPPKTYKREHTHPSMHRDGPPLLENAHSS

[2] = target: T1, von Hippel-Lindau disease tumor suppressor/Son of sevenless homolog 1 (Homo sapiens); assay: PROTAC activity at VHL/SOS1 in human NCI-H358 cells harboring KRAS G12C mutant assessed as induction of SOS1 degradation at 1 uM preincubated with VHL ligand for 4 hrs followed by compound treatment and measured after 24 hrs by Immunoblot analysis; format: cell-based
[3] = target: T1, von Hippel-Lindau disease tumor suppressor/Son of sevenless homolog 1 (Homo sapiens); assay: PROTAC activity at VHL/SOS1 in human ASPC1 cells harboring KRAS G12D mutant assessed as induction of SOS1 degradation at 1 uM preincubated with VHL ligand for 4 hrs followed by compound treatment and measured after 24 hrs by immunoblot analysis; format: cell-based
[4] = target: T1, von Hippel-Lindau disease tumor suppressor/Son of sevenless homolog 1 (Homo sapiens); assay: PROTAC activity at VHL/SOS1 in human ASPC1 cells harboring KRAS G12D mutant assessed as induction of SOS1 degradation at 1 uM preincubated with MG132 for 4 hrs followed by compound treatment and measured after 24 hrs by immunoblot analysis; format: cell-based
[5] = target: T1, von Hippel-Lindau disease tumor suppressor/Son of sevenless homolog 1 (Homo sapiens); assay: PROTAC activity at VHL/SOS1 in human UMUC3 cells harboring KRAS G12C mutant assessed as induction of SOS1 degradation by measuring maximal efficacy at 1 to 2000 nM incubated for 24 hrs by Immunoblot analysis relative to control; format: cell-based; conditions: dose 1-2000 nM
[6] = target: T1, von Hippel-Lindau disease tumor suppressor/Son of sevenless homolog 1 (Homo sapiens); assay: PROTAC activity at VHL/SOS1 in human SNU-C2B cells harboring KRAS G12D mutant assessed as induction of SOS1 degradation by measuring maximal efficacy at 1 to 2000 nM incubated for 24 hrs by Immunoblot analysis relative to control; format: cell-based; conditions: dose 1-2000 nM
[7] = target: T1, von Hippel-Lindau disease tumor suppressor/Son of sevenless homolog 1 (Homo sapiens); assay: PROTAC activity at VHL/SOS1 in human ASPC1 cells harboring KRAS G12D mutant assessed as induction of SOS1 degradation by measuring maximal efficacy at 1 to 2000 nM incubated for 24 hrs by Immunoblot analysis relative to control; format: cell-based; conditions: dose 1-2000 nM
[8] = target: T1, von Hippel-Lindau disease tumor suppressor/Son of sevenless homolog 1 (Homo sapiens); assay: PROTAC activity at VHL/SOS1 in human PANC-1 cells harboring KRAS G12D mutant assessed as induction of SOS1 degradation by measuring maximal efficacy at 1 to 2000 nM incubated for 24 hrs by Immunoblot analysis relative to control; format: cell-based; conditions: dose 1-2000 nM
[9] = target: T1, von Hippel-Lindau disease tumor suppressor/Son of sevenless homolog 1 (Homo sapiens); assay: PROTAC activity at VHL/SOS1 in human SNU1 cells harboring KRAS G12D mutant assessed as induction of SOS1 degradation by measuring maximal efficacy at 1 to 2000 nM incubated for 24 hrs by Immunoblot analysis relative to control; format: cell-based; conditions: dose 1-2000 nM
[10] = target: T1, von Hippel-Lindau disease tumor suppressor/Son of sevenless homolog 1 (Homo sapiens); assay: PROTAC activity at VHL/SOS1 in human Lovo cells harboring KRAS G13D mutant assessed as induction of SOS1 degradation by measuring maximal efficacy at 1 to 2000 nM incubated for 24 hrs by Immunoblot analysis relative to control; format: cell-based; conditions: dose 1-2000 nM
A549 = assay: Antiproliferative activity against human A549 cells harboring KRAS G12S mutant assessed as inhibition of cell proliferation incubated for 7 days by CellTiterGlo-3D proliferation assay; format: functional, cell-based; conditions: A549, 168 h
[11] = target: T1, von Hippel-Lindau disease tumor suppressor/Son of sevenless homolog 1 (Homo sapiens); assay: PROTAC activity at VHL/SOS1 in human A549 cells harboring KRAS G12S mutant assessed as induction of SOS1 degradation at 1 uM incubated for 2 to 4 hrs by Immunoblot analysis; format: cell-based; conditions: time 2-4 hrs
[12] = Half-life in BALB/c mouse at 10 mg/kg, ip measured upto 24 hrs by LC-MS/MS analysis; format: ADME, organism-based; conditions: in vivo
ASPC1 = assay: Antitumor activity against human ASPC1 cells harboring KRAS G12D mutant xenografted in BALB/c nude mouse assessed as tumor growth inhibition at 20 mg/kg, ip administered once daily for 3 weeks relative to control; format: functional; conditions: ASPC1, 504 h, read-out: TGI
[13] = target: T1, von Hippel-Lindau disease tumor suppressor/Son of sevenless homolog 1 (Homo sapiens); assay: In vivo PROTAC activity at VHL/SOS1 in human ASPC1 cells harboring KRAS G12D mutant xenografted BALB/c nude mouse assessed as decrease in phosphorylated ERK expression at 10 to 20 mg/kg, ip administered once daily for 3 weeks by Immunoblot analysis; format: functional, organism-based; conditions: dose 10-20 mg/kg
[14] = target: T1, von Hippel-Lindau disease tumor suppressor/Son of sevenless homolog 1 (Homo sapiens); assay: In vivo PROTAC activity at VHL/SOS1 in human ASPC1 cells harboring KRAS G12D mutant xenografted BALB/c nude mouse assessed as decrease in phosphorylated ERK expression at 10 to 20 mg/kg, ip administered once daily for 3 weeks by immunohistochemistry analysis; format: functional, organism-based; conditions: dose 10-20 mg/kg
[15] = target: T1, von Hippel-Lindau disease tumor suppressor/Son of sevenless homolog 1 (Homo sapiens); assay: In vivo PROTAC activity at VHL/SOS1 in human SW620 cells harboring KRAS G12V mutant xenografted BALB/c nude mouse assessed as induction of SOS1 degradation at 10 to 20 mg/kg, ip administered once daily for 2 weeks by Immunoblot analysis; format: functional, organism-based; conditions: SW-620, dose 10-20 mg/kg

Question: Which Activity [1] does the source give for `COc1cc2nc(C)nc(N[C@H](C)c3cc(N)cc(C(F)(F)F)c3)c2cc1C1CCN(C(=O)CCCCCC(=O)N[C@H](C(=O)N2C[C@H](O)C[C@H]2C(=O)N[C@@H](C)c2ccc(-c3scnc3C)cc2)C(C)(C)C)CC1` here?
Answer: The Activity was 83.9%.

Question: What about the Activity [2] of the same compound?
Answer: The Activity was “inactive”.

Question: What about the Activity [3] of the same compound?
Answer: Its Activity is “inactive”.

Question: What about the Activity [4] of the same compound?
Answer: Its Activity is “inactive”.

Question: And the Emax [5]?
Answer: The Emax was over 95%.

Question: And the Emax [6]?
Answer: The Emax was over 95%.

Question: What about the Emax [7] of the same compound?
Answer: The Emax was over 95%.

Question: And the Emax [8]?
Answer: Its Emax is over 95%.

Question: What about the Emax [9] of the same compound?
Answer: Its Emax is over 95%.

Question: And the Emax [10]?
Answer: Its Emax is over 95%.

Question: And the IC50 (A549)?
Answer: The IC50 was 105 nM.

Question: What about the Activity [11] of the same compound?
Answer: The Activity was “Active”.

Question: What about the half-life [12] of the same compound?
Answer: Its half-life is 9.69 h.

Question: What about the inhibition in vivo at 20 mg/kg (ASPC1) of the same compound?
Answer: Its inhibition in vivo at 20 mg/kg is 70.2%.

Question: What about the Activity [13] of the same compound?
Answer: The Activity was “Active”.

Question: And the Activity [14]?
Answer: Its Activity is “Active”.

Question: And the Activity [15]?
Answer: Its Activity is “Active”.
